Molecules are shown by their SMILES. Structures can show the parent of a compound that is named as a salt.

Compound `BrCc1ccc(-c2ccc([P+](c3ccccc3)(c3ccccc3)c3ccccc3)cc2)cc1` (as salt: perchlorate) [(16), 4-(4-bromomethylphenyl)phenyl triphenylphosphonium perchlorate] showed a melting point of 72 to 76 °C.
Compound `[Br-].c1ccc(P(c2ccccc2)c2cccc([P+](c3ccccc3)(c3ccccc3)c3ccccc3)c2)cc1` yielded a melting point of 215 to 220 °C.

The record behind these values is patent US8067440B2, “Phosphonium salts derivatives and uses thereof” (Valorisation-Recherche, Limited Partnership, priority 2004, dated 2011).
